Assay results from patent EP0723539B1, “TRICYCLIC SULFONAMIDE COMPOUNDS USEFUL FOR INHIBITION OF G-PROTEIN FUNCTION AND FOR TREATMENT OF PROLIFERATIVE DISEASES” (SCHERING CORPORATION, priority 1993, dated 1995).

How the values were obtained:
[1] = system: T24-BAG4 human bladder carcinoma cells expressing an activated H-ras gene; experiment: Cell Mat assay: inhibition of tumor cell growth; type: cell-based
Procedure: (§1) Normal human HEPM fibroblasts were planted in 3.5 cm dishes at a density of 5 x 10^4 cells/dish in 2 ml growth medium, and incubated for 3-5d to achieve confluence. Medium was aspirated from each dish and the indicator tumor cells, T24-BAG4 human bladder carcinoma cells expressing an activated H-ras gene, were planted on top of the fibroblast monolayer at a density of 2 x 10^3cells/dish in 2 ml growth medium, and allowed to attach overnight. Compound-induced colony inhibition was assayed by addition of serial dilutions of compound directly to the growth medium 24 h after tumor cell planting, and incubating cells for an additional 14 d to allow colony formation. Assays were terminated by rinsing monolayers twice with phosphate-buffered saline (PBS), fixing the monolayers with a 1% glutaraldehyde solution in PBS, then visualizing tumor cells by staining with X-Gal (Price, J., et al., Lineage analysis in the vertebrate nervous system by retrovirus-mediated gene transfer, Proc. Natl. Acad. Sci.84, 156-160(1987)). […] The therapeutic index of the compound was quantitatively expressed as the ratio of mIC50/tIC50, with values greater than one indicative of tumor target specificity.

[2] = molecular target: T1, geranylgeranyl protein transferase (GGPT) I (Rattus norvegicus, UniProt P53610+Q04631); experiment: In vitro enzyme assay: inhibition of geranylgeranyl protein transferase I (Ras-CVLL as acceptor); type: biochemical; details: Ras-CVLL as isoprenoid acceptor, read-out: inhibits GGPT
T1 construct: geranylgeranyl protein transferase (GGPT) I were partially purified from rat brain; from tissue; host or cells: rat brain
Source text: Both farnesyl protein transferase (FPT) and geranylgeranyl protein transferase (GGPT) I were partially purified from rat brain by ammonium sulfate fractionation followed by Q-Sepharose (Pharmacia, Inc.) anion exchange chromatography essentially as described by Yokoyama et al (Yokoyama, K., et al., (1991), A protein geranylgeranyltransferase from bovine brain: Implications for protein prenylation specificity, Proc. Natl. Acad. Sci USA 88: 5302-5306, the disclosure of which is incorporated herein by reference thereto). Two forms of val^12-Ha-Ras protein were prepared as substrates for these enzymes, differing in their carboxy terminal sequence. One form terminated in cysteine-valine-leucine-serine (Ras-CVLS) the other in cystein-valine-leucine-leucine (Ras-CVLL). Ras-CVLS is a substrate for the famesyl protein transferase while Ras-CVLL is a substrate for geranylgeranyl protein transferase I. The cDNAs encoding these proteins were constructed so that the proteins contain an amino-terminal extension of 6 histidine residues. Both proteins were expressed in Escherichia coli and purified using metal chelate affinity chromatography. The radiolabelled isoprenyl pyrophosphate substrates, [3H]farnesyl pyrophosphate and [^3H]geranylgeranyl pyrophosphate, were purchased from DuPont/New England Nuclear. […]

[3] = molecular target: T2, farnesyl protein transferase (FPT) (Rattus norvegicus, UniProt Q02293+Q04631); experiment: In vitro enzyme assay: inhibition of farnesyl protein transferase (transfer of [3H]farnesyl to Ras-CVLS); type: biochemical
T2 construct: partially purified rat brain farnesyl protein transferase (FPT); from tissue; host or cells: rat brain
Source text: Both farnesyl protein transferase (FPT) and geranylgeranyl protein transferase (GGPT) I were partially purified from rat brain by ammonium sulfate fractionation followed by Q-Sepharose (Pharmacia, Inc.) anion exchange chromatography essentially as described by Yokoyama et al (Yokoyama, K., et al., (1991), A protein geranylgeranyltransferase from bovine brain: Implications for protein prenylation specificity, Proc. Natl. Acad. Sci USA 88: 5302-5306, the disclosure of which is incorporated herein by reference thereto). Two forms of val^12-Ha-Ras protein were prepared as substrates for these enzymes, differing in their carboxy terminal sequence. One form terminated in cysteine-valine-leucine-serine (Ras-CVLS) the other in cystein-valine-leucine-leucine (Ras-CVLL). […]
Several methods for measuring farnesyl protein transferase activity have been described (Reiss et al 1990, Cell 62: 81; Schaber et al 1990, J. Biol. Chem. 265: 14701; Manne et al 1990, PNAS 87: 7541; and Barbacid & Manne 1993, U.S. Patent No. 5,185,248). […] Filter mats were washed once with 6% TCA, 2% SDS and radioactivity was measured in a Wallac 1204 Betaplate BS liquid scintillation counter. Percent inhibition was calculated relative to the DMSO vehicle control.

Ras-CVLS processing = experiment: Cell-based assay: Ras processing in Ras-transfected COS cells (immunoblot); parameters: species or system monkey; details: read-out: INHIBITION OF Ras PROCESSING IC50
Procedure: COS monkey kidney cells were transfected by electroporation with the plasmid pSV-SPORT (Gibco/BRL) containing a cDNA insert encoding either Ras-CVLS or Ras-CVLL, leading to transient overexpression of a Ras substrate for either farnesyl protein transferase or geranylgeranyl protein transferase I, respectively (see above).
Following electroporation, cells were plated into 6-well tissue culture dishes containing 1.5 ml of Dulbecco's-modified Eagle's media (GIBCO, Inc.) supplemented with 10% fetal calf serum and the appropriate farnesyl protein transferase inhibitors. After 24 hours, media was removed and fresh media containing the appropriate drugs was re-added. […]
Membranes were blocked by incubation overnight at 4°C in PBS containing 2.5% dried milk and 0.5% Tween-20 and then incubated with a Ras-specific monoclonal antibody, Y13-259 (Furth, M.E., et al., (1982), Monoclonal antibodies to the p21 products of the transforming gene of Harvey murine sarcome virus and of the cellular ras gene family, J. Virol. 43: 294-304), in PBS containing 1% fetal calf serum for one hour at room temperature. […] The presence of processed and unprocessed Ras-CVLS or Ras-CVLL was detected using a colorimetric peroxidase reagent (4-chloro-1-naphthol) as described by the manufacturer (Bio-Rad).

[4] = system: Normal human HEPM fibroblasts; experiment: Cell Mat assay: inhibition of normal cell growth (cell mat); type: cell-based; details: Fibroblast, normal cell monolayer
Procedure: as §1

Row | inhibition at 42 µM [2] [%] | selective for FPT inhibition ([3]; FPT versus GGPT) | IC50 (Ras-CVLS processing) [µM] | IC50 ([1]; Homo sapiens, Ras-transformed tumor cells) [µM] | FPT IC50 ([3]; partially purified rat brain FPT, Ras-CVLS farnesylation) [µM] | SMILES | antiproliferative activity against Ras-transformed cells (in words) [1] | IC50 [4] [µM]
1 | 14 | at least 32 fold | – | – | – | O=S(=O)(Cc1ccccc1)N1CCC(=C2c3ccc(Cl)cc3CCc3cccnc32)CC1 [Compound 2.12] | only weak antiproliferative activity | –
2 | – | – | 0.01 to 10 | 6.3 | 0.01 to 10 | C=CS(=O)(=O)N1CCC(=C2c3ccc(Cl)cc3CCc3cccnc32)CC1 [Compound 2.9] | – | 25
